Test results from US20240366567A1, “PHARMACEUTICAL COMBINATIONS COMPRISING A KRAS G12C INHIBITOR AND USES THEREOF FOR THE TREATMENT OF CANCERS” (NOVARTIS AG, priority 2021, published 2024).

What was measured:
[1] = system: human KRAS G12C-mutated CRC PDX models; experiment: CRC patient-derived xenograft (PDX) panel; assay type: in vivo, nude mice; details: Compound A alone, 100 mg/kg QD oral
Experimental: The antitumor efficacy of JDQ443±inhibitors of RAS-upstream or RAS-downstream signaling was evaluated in PDX panels of human KRAS G12C-mutated NSCLC and CRC.
Patient-derived xenograft (PDX) models of human NSCLC and CRC were established by direct implantation of patient NSCLC or CRC tumor tissue subcutaneously into nude mice. PDX models were maintained through in vivo serial passaging.
A cohort of mice was implanted subcutaneously with tumor fragments from each PDX model (typically passages 4-9). Ten NSCLC and nine CRC PDX models were used. Each model is named with a code, e.g. 30580-HX, 30581-HX etc, for identification and tracking purposes. Individual mice were assigned to treatment groups or control groups for dosing once their tumor volume reached 200-250 mm^3 (T=0, on the x-axis of the spider plots). One animal per PDX model was assigned to each treatment arm. Once enrolled into treatment arms, tumor volumes were measured twice weekly by caliper, and tumor volume was estimated in […] using the formula: Length×Width^2/2. The end of study per model was defined as minimum of 28 days treatment, or duration for untreated tumor to reach 1500 mm^3, or duration for 2 doublings of untreated tumor, whichever was slower.
The Raf inhibitor (LXH254 (naporafenib)) was formulated as a suspension. […]

[2] = KontRASt-01 (NCT04699188) clinical pharmacokinetics; assay type: in vivo; details: human, plasma, oral, Case 2, JDQ443 200 mg QD continuously + TNO155 20 mg QD 2 wk on/1 wk off, JDQ443 exposure
[3] = system: Ba/F3 cells expressing GFP-tagged KRASG12C H95Q; experiment: Ba/F3 viability, CellTiter-Glo, 72 hours (Example 3); assay type: cell-based, murine
patients = experiment: KontRASt-01 (NCT04699188) phase Ib, safety and tolerability; assay type: in vivo, human
Experimental: The study is conducted to evaluate the antitumor efficacy, safety and tolerability of JDQ443 as a single agent and JDQ443 in combination with other agents.

[4] = system: Ba/F3 cells expressing GFP-tagged KRASG12C R68S; experiment: Ba/F3 viability, CellTiter-Glo, 72 hours (Example 3); assay type: cell-based, murine
[5] = system: Ba/F3 cells expressing GFP-tagged KRASG12C Y96D; experiment: as above; assay type: cell-based, murine
Experimental: GFP-tagged KRASG12C H95Q, KRASG12C Y96D or KRASG12C R68S double mutations were generated by site-directed mutagenesis (QuikChange Lightning Site-Directed Mutagenesis Kit (Catalog #210518) Template: pcDNA3.1(+)EGFP-T2A-FLAG-KRAS G12C and expressed in Cas9 containing Ba/F3 cells by stable transfection. Cells were treated with a dose response curve starting at […] with 1/3 dilution from a 10 mM DMSO stock. Cell lines were treated with indicated compounds for 72 hours and the viabilities of the cells were measured with CellTiter-Glo.

[6] = system: KRAS G12C, PIK3CA and CDKN2A-mutated LU99 xenograft; experiment: LU99 xenograft, single agent and double, triple, quadruple combinations (Example 8); assay type: in vivo, mice; details: daily dosing 100 mg/kg

C=CC(=O)N1CC2(CC(n3nc(-c4ccc5c(cnn5C)c4)c(-c4c(Cl)c(C)cc5[nH]ncc45)c3C)C2)C1 (single isomer, unassigned) [Compound A, 1-{6-[(4M)-4-(5-Chloro-6-methyl-1H-indazol-4-yl)-5-methyl-3-(1-methyl-1H-indazol-5-yl)-1H-pyrazol-1-yl]-2-azaspiro[3.3]heptan-2-yl}prop-2-en-1-one]
anti-tumor response [1]: moderate anti-tumor response in a few models
Cmax [2]: 5270 ng/mL
Tmax [2]: 3.2 h
AUC(0-t) ([2]; read-out: AUC0-24 h): 55700 ng·h/mL
inhibition of cellular viability ([3]; KRASG12C H95Q double mutant, 3-day proliferation assay): potently inhibiting
GI50 ([3]; Mus musculus, BaF3, KRAS G12C H95Q, 72 hours, CellTiter-Glo, read-out: GI50 +/− standard deviation (STDEV)): 0.57 µM
Grade 4-5 TRAEs (patients; 39 patients, all doses): no Grade 4-5 TRAEs
patients with Grade 3 TRAEs (patients; 39 patients, all doses): 4 pts
tolerability (patients; 39 patients, 200 mg QD, 400 mg QD, 200 mg BID or 300 mg BID): generally well tolerated
ALT increased (adverse event), All grades (patients; JDQ443 200 mg BID (n = 11)): 0 n
ALT increased (adverse event), Grade ≥3 (patients; JDQ443 200 mg BID (n = 11)): 0 n
AST increased (adverse event), All grades (patients; JDQ443 200 mg BID (n = 11)): 0 n
AST increased (adverse event), Grade ≥3 (patients; JDQ443 200 mg BID (n = 11)): 0 n
Alopecia (adverse event), All grades (patients; JDQ443 200 mg BID (n = 11)): 0 n
Alopecia (adverse event), Grade ≥3 (patients; JDQ443 200 mg BID (n = 11)): 0 n
Arthralgia (adverse event), Grade ≥3 (patients; JDQ443 200 mg BID (n = 11)): 0 n
Decreased appetite (adverse event), Grade ≥3 (patients; JDQ443 200 mg BID (n = 11)): 0 n
Diarrhea (adverse event), Grade ≥3 (patients; JDQ443 200 mg BID (n = 11)): 0 n
Dizziness (adverse event), Grade ≥3 (patients; JDQ443 200 mg BID (n = 11)): 0 n
Dry mouth (adverse event), All grades (patients; JDQ443 200 mg BID (n = 11)): 0 n
Dry mouth (adverse event), Grade ≥3 (patients; JDQ443 200 mg BID (n = 11)): 0 n
Dry skin (adverse event), All grades (patients; JDQ443 200 mg BID (n = 11)): 0 n
Dry skin (adverse event), Grade ≥3 (patients; JDQ443 200 mg BID (n = 11)): 0 n
ECG QT prolonged (adverse event), All grades (patients; JDQ443 200 mg BID (n = 11)): 0 n
ECG QT prolonged (adverse event), Grade ≥3 (patients; JDQ443 200 mg BID (n = 11)): 0 n
Edema (adverse event), Grade ≥3 (patients; JDQ443 200 mg BID (n = 11)): 0 n
Fatigue (adverse event), Grade ≥3 (patients; JDQ443 200 mg BID (n = 11)): 0 n
Headache (adverse event), All grades (patients; JDQ443 200 mg BID (n = 11)): 0 n
Headache (adverse event), Grade ≥3 (patients; JDQ443 200 mg BID (n = 11)): 0 n
Lipase increased (adverse event), Grade ≥3 (patients; JDQ443 200 mg BID (n = 11)): 0 n
Musculoskeletal stiffness (adverse event), All grades (patients; JDQ443 200 mg BID (n = 11)): 0 n
Musculoskeletal stiffness (adverse event), Grade ≥3 (patients; JDQ443 200 mg BID (n = 11)): 0 n
Nausea (adverse event), Grade ≥3 (patients; JDQ443 200 mg BID (n = 11)): 0 n
Neuropathy peripheral (adverse event), All grades (patients; JDQ443 200 mg BID (n = 11)): 0 n
Neuropathy peripheral (adverse event), Grade ≥3 (patients; JDQ443 200 mg BID (n = 11)): 0 n
Neutropenia (adverse event), All grades (patients; JDQ443 200 mg BID (n = 11)): 0 n
Neutropenia (adverse event), Grade ≥3 (patients; JDQ443 200 mg BID (n = 11)): 0 n
Number of patients with at least one event, Grade ≥3 (patients; JDQ443 200 mg BID (n = 11)): 0 n
Photosensitivity reaction (adverse event), All grades (patients; JDQ443 200 mg BID (n = 11)): 0 n
Photosensitivity reaction (adverse event), Grade ≥3 (patients; JDQ443 200 mg BID (n = 11)): 0 n
Pruritus (adverse event), Grade ≥3 (patients; JDQ443 200 mg BID (n = 11)): 0 n
Rash (maculopapular) (adverse event), Grade ≥3 (patients; JDQ443 200 mg BID (n = 11)): 0 n
Rash (pustular) (adverse event), All grades (patients; JDQ443 200 mg BID (n = 11)): 0 n
Rash (pustular) (adverse event), Grade ≥3 (patients; JDQ443 200 mg BID (n = 11)): 0 n
Vomiting (adverse event), Grade ≥3 (patients; JDQ443 200 mg BID (n = 11)): 0 n
ALT increased (adverse event), Grade ≥3 (patients; JDQ443 all patients (N = 39)): 0 n
AST increased (adverse event), Grade ≥3 (patients; JDQ443 all patients (N = 39)): 0 n
Alopecia (adverse event), Grade ≥3 (patients; JDQ443 all patients (N = 39)): 0 n
Arthralgia (adverse event), Grade ≥3 (patients; JDQ443 all patients (N = 39)): 0 n
Decreased appetite (adverse event), Grade ≥3 (patients; JDQ443 all patients (N = 39)): 0 n
Diarrhea (adverse event), All grades (patients; JDQ443 all patients (N = 39)): 5 n
Diarrhea (adverse event), Grade ≥3 (patients; JDQ443 all patients (N = 39)): 0 n
Dizziness (adverse event), Grade ≥3 (patients; JDQ443 all patients (N = 39)): 0 n
Dry mouth (adverse event), Grade ≥3 (patients; JDQ443 all patients (N = 39)): 0 n
Dry skin (adverse event), Grade ≥3 (patients; JDQ443 all patients (N = 39)): 0 n
ECG QT prolonged (adverse event), Grade ≥3 (patients; JDQ443 all patients (N = 39)): 0 n
Edema (adverse event), Grade ≥3 (patients; JDQ443 all patients (N = 39)): 0 n
Headache (adverse event), Grade ≥3 (patients; JDQ443 all patients (N = 39)): 0 n
Lipase increased (adverse event), Grade ≥3 (patients; JDQ443 all patients (N = 39)): 0 n
Musculoskeletal stiffness (adverse event), Grade ≥3 (patients; JDQ443 all patients (N = 39)): 0 n
Nausea (adverse event), Grade ≥3 (patients; JDQ443 all patients (N = 39)): 0 n
Neuropathy peripheral (adverse event), Grade ≥3 (patients; JDQ443 all patients (N = 39)): 0 n
Number of patients with at least one event, Grade ≥3 (patients; JDQ443 all patients (N = 39)): 5 n
Pruritus (adverse event), Grade ≥3 (patients; JDQ443 all patients (N = 39)): 0 n
Rash (maculopapular) (adverse event), Grade ≥3 (patients; JDQ443 all patients (N = 39)): 0 n
Rash (pustular) (adverse event), Grade ≥3 (patients; JDQ443 all patients (N = 39)): 0 n
Vomiting (adverse event), All grades (patients; JDQ443 all patients (N = 39)): 5 n
Vomiting (adverse event), Grade ≥3 (patients; JDQ443 all patients (N = 39)): 0 n
dose limiting toxicity (DLT) (patients; patient treated at 300 mg BID): one DLT (Grade 3 fatigue)
treatment-related serious AE (patients; patient treated at 300 mg BID): one treatment-related serious AE (Grade 3 photosensitivity reaction)
inhibition of cellular viability ([4]; KRASG12C R68S double mutant, 3-day proliferation assay): not inhibited
GI50 ([4]; Mus musculus, BaF3, KRAS G12C R68S, 72 hours, CellTiter-Glo, read-out: GI50 +/− standard deviation (STDEV)): > 10 µM
inhibition of cellular viability ([5]; KRASG12C Y96D double mutant, 3-day proliferation assay): not inhibited
GI50 ([5]; Mus musculus, BaF3, KRAS G12C Y96D, 72 hours, CellTiter-Glo, read-out: GI50 +/− standard deviation (STDEV)): > 10 µM
effect on tumor growth [6]: deep tumor regression for approximately two and a half weeks, followed by tumor relapse
